Like-named read-outs stand apart in the source and are kept apart here. Where no end group is shown, it is not given here.
Columns and labels:
Fusarium proliferatum = experiment: Co-incubation (oCelloScope) assay, F. proliferatum conidial germination; type: cell-based
[1] = test system: Fusarium graminearum (Gibberella zeae); type: cell-based; details: for Inhibition: 50 micromolar; for Summary of CGI factor spectrum of activity: Fusarium graminearum
[2] = test system: Pseudoperonospora cubensis; experiment: Pseudoperonospora cubensis (cucurbit downy mildew) leaf disk assay; type: in vivo; details: for Summary of CGI factor spectrum of activity: Downy Mildew
[3] = test system: Fusarium oxysporum f. sp. lycopersici (Saccardo) Snyder et Hansen CBS 167.30; experiment: Resazurin plate co-incubation assay, F. oxysporum; type: cell-based; details: for Inhibition: 50 micromolar; for Summary of CGI factor spectrum of activity: Fusarium oxysporum
Botrytis cinerea b05.10 = type: cell-based
Botrytis (Strain B05.10) = experiment: Botrytis inhibition assay (resazurin assay); type: cell-based; details: for inhibition at 1 µM: tested alone at 1 μM
[4] = tested alone at 0.2 ug/ml, 24 hours at 23° C.
[5] = tested alone at 2 ug/ml, 24 hours at 23° C.
[6] = tested alone at 0.25 uM, 24 hours at 23° C.
[7] = tested alone at 0.5 uM, 24 hours at 23° C.
[8] = tested alone at 1 uM, 24 hours at 23° C.
[9] = 10 micromolar, 24 hours at 20° C.
[10] = 100 micromolar, 24 hours at 20° C.
[11] = Botrytis cinerea, at least one concentration tested
[12] = read-out: Percent Inhibition EXP23002594
[13] = read-out: Percent Inhibition EXP23002662
[14] = tested alone at 5 uM, 24 hours at 23° C.
[15] = tested alone at 0.02 ug/ml, 24 hours at 23° C.

O=C(Nc1ccccc1-c1ccc(Cl)cc1)c1cccnc1Cl [Boscalid]
Inhibition of conidial germination (Fusarium proliferatum; [4]): neither boscalid nor trifloxystrobin showed any inhibition and No
Inhibition of conidial germination (Fusarium proliferatum; [5]): neither boscalid nor trifloxystrobin showed any inhibition and no inhibition and No

WHWLQLKPGQPMYWHWLQLKPGQPMY (listed as Saccharomyces cerevisiae) [Pep301, S. cerevisiae Alpha-pheromone homodimer]
Inhibition [1]: Yes
Summary of CGI factor spectrum of activity [1]: Yes
Inhibition of conidial germination (Fusarium proliferatum; [6]): No
Inhibition of conidial germination (Fusarium proliferatum; [7]): No
Inhibition of conidial germination (Fusarium proliferatum; [8]): Yes
Inhibition (reduced disease severity of leaf discs) ([2]; 20 micromolar): reduced the disease severity and Yes
Summary of CGI factor spectrum of activity [2]: Yes
Inhibition [3]: Yes
Summary of CGI factor spectrum of activity [3]: Yes
Inhibition (Botrytis cinerea b05.10; [9]): No
Inhibition (Botrytis cinerea b05.10; [10]): active and Yes
Summary of CGI factor spectrum of activity (Botrytis cinerea b05.10; [11]): completely inhibited conidial germination and Yes

Cc1cc(C2CC2)nc(Nc2ccccc2)n1 [Cyprodinil]
inhibition at 50 µM (Botrytis (Strain B05.10); [12]): 73.6%
inhibition at 50 µM (Botrytis (Strain B05.10); [13]): 53.7%
inhibition at 100 µM (Botrytis (Strain B05.10); [13]): 74.8%

WCTWKGQPCW [Pep105]
Inhibition of conidial germination (Fusarium proliferatum): No and Yes
Inhibition (Botrytis cinerea b05.10): No
Summary of CGI factor spectrum of activity (Botrytis cinerea b05.10): No

C[C@@H]1C/C=C/C=C/C=C/C=C/[C@H](O[C@@H]2O[C@H](C)[C@@H](O)[C@H](N)[C@@H]2O)C[C@@H]2O[C@](O)(C[C@@H](O)C[C@H]3O[C@@H]3/C=C/C(=O)O1)C[C@H](O)[C@H]2C(=O)O [Natamycin]
Inhibition of conidial germination (Fusarium proliferatum; [14]): did not show any inhibition
Inhibition of conidial germination (Fusarium proliferatum; tested alone at 5 ug/ml, 24 hours at 23° C.): No
Inhibition of conidial germination (Fusarium proliferatum; tested alone at 10 ug/ml, 24 hours at 23° C.): No
Inhibition of conidial germination (Fusarium proliferatum; tested alone at 100 ug/ml, 24 hours at 23° C.): inhibited fungal growth and Yes
inhibition at 100 µM (Botrytis (Strain B05.10); Table 20, tested alone at 100 μM (positive control), read-out: Percent Inhibition (Median)): 101%
inhibition at 100 µM (Botrytis (Strain B05.10); tested alone at 100 μM (positive control 1), read-out: Percent Inhibition EXP23002534): 100%
inhibition at 100 µM (Botrytis (Strain B05.10); tested alone at 100 μM (positive control 1), read-out: Percent Inhibition EXP23002594): 101%
inhibition at 100 µM (Botrytis (Strain B05.10); tested alone at 100 μM, read-out: Percent Inhibition EXP23002662): 101%

WHWLQLKPGQPMYGGGGWHWLQLKPGQPMY (listed as Saccharomyces cerevisiae) [Pep302, S. cerevisiae Alpha-pheromone homodimer with GGGG linker]
Inhibition of conidial germination (Fusarium proliferatum; [6]): No
Inhibition of conidial germination (Fusarium proliferatum; [7]): No
Inhibition of conidial germination (Fusarium proliferatum; [8]): Yes

CC1(C)CCC(Cc2ccc(Cl)cc2)C1(O)Cn1cncn1 (stereo not shown) [Metconazole]
Inhibition of conidial germination (Fusarium proliferatum; [15]): did not show any inhibition and No
Inhibition of conidial germination (Fusarium proliferatum; [4]): No
Inhibition of conidial germination (Fusarium proliferatum; [5]): inhibited fungal growth and Yes

N#Cc1c[nH]cc1-c1cccc2c1OC(F)(F)O2 [Fludioxonil]
Inhibition of conidial germination (Fusarium proliferatum; [15]): did not show any inhibition and No
Inhibition of conidial germination (Fusarium proliferatum; [4]): No
Inhibition of conidial germination (Fusarium proliferatum; [5]): Yes

CON=C(C(=O)OC)c1ccccc1CON=C(C)c1cccc(C(F)(F)F)c1 [Trifloxystrobin]
Inhibition of conidial germination (Fusarium proliferatum; [4]): neither boscalid nor trifloxystrobin showed any inhibition and No
Inhibition of conidial germination (Fusarium proliferatum; [5]): neither boscalid nor trifloxystrobin showed any inhibition and No

WHWLQLKPGQPMY (listed as Saccharomyces cerevisiae) [Pep107, S. cerevisiae Alpha-pheromone]
Inhibition [1]: did not show any inhibition and No
Summary of CGI factor spectrum of activity [1]: No
Inhibition (reduced disease severity of leaf discs) ([2]; 200 micromolar): reduced the disease severity and Yes
Summary of CGI factor spectrum of activity [2]: Yes
Inhibition [3]: Yes
Summary of CGI factor spectrum of activity [3]: Yes
Inhibition (Botrytis cinerea b05.10; [9]): No
Inhibition (Botrytis cinerea b05.10; [10]): moderate inhibition and Some
Summary of CGI factor spectrum of activity (Botrytis cinerea b05.10; [11]): Yes

CC[C@H](C)C[C@H](C)CCCCCCCCC(=O)N[C@H]1C[C@@H](O)[C@@H](NCCN)NC(=O)[C@@H]2[C@@H](O)CCN2C(=O)[C@H]([C@H](O)CCN)NC(=O)[C@H]([C@H](O)[C@@H](O)c2ccc(O)cc2)NC(=O)[C@@H]2C[C@@H](O)CN2C(=O)[C@H]([C@@H](C)O)NC1=O [Caspofungin]
inhibition at 1 µM (Botrytis (Strain B05.10); read-out: Percent Inhibition EXP23002534): 1.08%
inhibition at 1 µM (Botrytis (Strain B05.10); [12]): 98.7%
inhibition at 1 µM (Botrytis (Strain B05.10); [13]): 3.1%

Drosomycin (DCLSGRYKGPCAVWDNETCRRVCKEEGRSSGHCSPSLKCWCEGC; disulfide (positions not given here); not fully specified; ends not checked; also: four intramolecular disulfide bridges, pairing not given here; UniProt P41964 27-70, looked up) [44-residue antifungal peptide with four intramolecular disulfide bridges, heterologously expressed in E. coli]
Inhibition of conidial germination (Fusarium proliferatum; [7]): did not show any inhibition and No
Inhibition of conidial germination (Fusarium proliferatum; [8]): did not show any inhibition and No
Inhibition of conidial germination (Fusarium proliferatum; tested alone at 8 uM, 24 hours at 23° C.): Yes

N#Cc1c[nH]cc1-c1cccc(Cl)c1Cl [Fenpiclonil]
Inhibition of conidial germination (Fusarium proliferatum; [14]): did not inhibit conidial germination and No
Inhibition of conidial germination (Fusarium proliferatum; tested alone at 10 uM, 24 hours at 23° C.): No
Inhibition of conidial germination (Fusarium proliferatum; tested alone at 50 uM, 24 hours at 23° C.): Yes

WCGRPGQPC (REGION 1..9: note = Botrytis spp.) [Pep106, B. cinerea Alpha-pheromone]
Inhibition (Botrytis cinerea b05.10; [9]): No
Inhibition (Botrytis cinerea b05.10; [10]): No
Summary of CGI factor spectrum of activity (Botrytis cinerea b05.10; [11]): No

RRRRRRRR [Pep462, Octaarginine (R8) cell-penetrating peptide (non-CGI peptide CONTROL)]
Inhibition [1]: Yes
Summary of CGI factor spectrum of activity [1]: Yes
Inhibition of conidial germination (Fusarium proliferatum; tested alone at 0.125 uM, 24 hours at 23° C.): No
Inhibition of conidial germination (Fusarium proliferatum; [6]): No
Inhibition of conidial germination (Fusarium proliferatum; [7]): No
Inhibition of conidial germination (Fusarium proliferatum; [8]): effective and Yes
Inhibition (reduced disease severity of leaf discs) ([2]; 20 micromolar): did not and No
Summary of CGI factor spectrum of activity [2]: No
Inhibition [3]: Yes
Summary of CGI factor spectrum of activity [3]: Yes
Inhibition (Botrytis cinerea b05.10; [9]): inhibited and Yes
Inhibition (Botrytis cinerea b05.10; [10]): inhibited and Yes
Summary of CGI factor spectrum of activity (Botrytis cinerea b05.10; [11]): completely inhibited conidial germination and Yes

From patent US20260223846A1, “PEPTIDE IN COMBINATION WITH FUNGICIDE COMPOSITIONS FOR FUNGAL CONTROL AND RELATED METHODS” (priority 2023, published 2026)
